What follows are molecules tested against T1, Androgen Receptor (AR) (Homo sapiens, UniProt P10275, T878A) (assay: LNCaP Androgen Receptor Down-regulation Cell Assay (immunofluorescence end point)). Conditions: LNCaP prostate carcinoma cells, compound incubation 20-22 hours, 50% reduction of the AR signal; read-out: Androgen Receptor Down-regulation Assay (a) IC50/μM.
T1 construct: cell based immuno-fluorescence assay using the LNCaP prostate epithelial cell line; endogenous in cells; host or cells: LNCaP clone FGC (ATCC CRL-1740)
T1 sequence (P10275 1-920 T878A): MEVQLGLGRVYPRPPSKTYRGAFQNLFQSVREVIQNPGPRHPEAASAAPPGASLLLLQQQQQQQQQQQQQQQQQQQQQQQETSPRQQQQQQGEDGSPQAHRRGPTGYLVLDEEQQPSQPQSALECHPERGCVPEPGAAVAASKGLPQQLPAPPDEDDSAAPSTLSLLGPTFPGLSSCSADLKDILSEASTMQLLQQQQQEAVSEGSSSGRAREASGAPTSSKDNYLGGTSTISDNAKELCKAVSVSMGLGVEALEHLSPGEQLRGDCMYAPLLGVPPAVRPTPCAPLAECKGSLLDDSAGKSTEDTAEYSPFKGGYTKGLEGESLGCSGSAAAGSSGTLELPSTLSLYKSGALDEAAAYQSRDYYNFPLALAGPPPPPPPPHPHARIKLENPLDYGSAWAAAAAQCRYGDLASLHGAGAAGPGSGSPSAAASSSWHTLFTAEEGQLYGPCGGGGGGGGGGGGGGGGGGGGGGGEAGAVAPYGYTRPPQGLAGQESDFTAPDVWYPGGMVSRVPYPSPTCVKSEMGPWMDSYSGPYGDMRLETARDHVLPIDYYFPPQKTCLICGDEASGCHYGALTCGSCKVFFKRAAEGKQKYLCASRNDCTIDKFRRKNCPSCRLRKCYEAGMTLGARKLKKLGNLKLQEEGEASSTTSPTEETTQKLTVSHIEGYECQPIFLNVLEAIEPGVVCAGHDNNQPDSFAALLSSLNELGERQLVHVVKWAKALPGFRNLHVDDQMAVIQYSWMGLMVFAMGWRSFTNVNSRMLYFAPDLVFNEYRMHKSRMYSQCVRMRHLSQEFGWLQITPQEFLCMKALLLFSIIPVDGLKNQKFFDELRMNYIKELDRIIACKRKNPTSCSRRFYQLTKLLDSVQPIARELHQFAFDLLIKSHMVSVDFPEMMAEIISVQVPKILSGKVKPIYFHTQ
Type: cell-based
Procedure, shortened: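 LNCaP cells in medium with 5% charcoal-stripped FBS were plated overnight, then treated with a compound dilution series for 20-22 h at 37° C. After fixation, permeabilisation and immunostaining, AR-associated green fluorescence was quantified by laser-scanning microplate cytometry; AR down-regulation expressed as IC50 from fitted dose-response curves.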

| Compound | DC50 [µM] |
| --- | --- |
| Fc1cccc(CN2CCCN(c3ccc4nnc(C(F)(F)F)n4n3)CC2)c1 [Example 172, 6-[4-[(3-fluorophenyl)methyl]-1,4-diazepan-1-yl]-3-(trifluoromethyl)-[1,2,4]triazolo[4,3-b]pyridazine] | 0.81 |
| FC(F)(F)c1nnc2ccc(N3CCCN(Cc4cccc(Cl)c4)CC3)nn12 [Example 175, 6-[4-[(3-chlorophenyl)methyl]-1,4-diazepan-1-yl]-3-(trifluoromethyl)-[1,2,4]triazolo[4,3-b]pyridazine] | 0.68 |
| FC(F)(F)c1nnc2ccc(N3CCCN(Cc4ccc(Cl)cc4)CC3)nn12 [Example 176, 6-[4-[(4-chlorophenyl)methyl]-1,4-diazepan-1-yl]-3-(trifluoromethyl)-[1,2,4]triazolo[4,3-b]pyridazine] | 0.85 |
| Fc1ccc(CN2CCCN(c3ccc4nnc(C(F)(F)F)n4n3)CC2)cc1 [Example 177, 6-[4-[(4-fluorophenyl)methyl]-1,4-diazepan-1-yl]-3-(trifluoromethyl)-[1,2,4]triazolo[4,3-b]pyridazine] | 0.77 |
| Cc1cccc(CN2CCCN(c3ccc4nnc(C(F)(F)F)n4n3)CC2)c1 [Example 178, 6-[4-[(3-methylphenyl)methyl]-1,4-diazepan-1-yl]-3-(trifluoromethyl)-[1,2,4]triazolo[4,3-b]pyridazine] | 0.88 |
| FC(F)(F)c1cccc(CN2CCCN(c3ccc4nnc(C(F)(F)F)n4n3)CC2)c1 [Example 179, 3-(trifluoromethyl)-6-[4-[[3-(trifluoromethyl)phenyl]methyl]-1,4-diazepan-1-yl]-[1,2,4]triazolo[4,3-b]pyridazine] | 0.59 |
| COc1ccc(CN2CCCN(c3ccc4nnc(C(F)(F)F)n4n3)CC2)cc1 [Example 181, 6-[4-[(4-methoxyphenyl)methyl]-1,4-diazepan-1-yl]-3-(trifluoromethyl)-[1,2,4]triazolo[4,3-b]pyridazine] | 2.1 |
| FC(F)(F)c1cccc(CN2CCN(c3ccc4nnc(C(F)(F)F)n4c3)CC2)c1 [Example 185, 3-(trifluoromethyl)-6-[4-[[3-(trifluoromethyl)phenyl]methyl]piperazin-1-yl]-[1,2,4]triazolo[4,3-a]pyridine] | 0.68 |
| FC(F)(F)c1ccc(CN2CCN(c3ccc4nnc(C(F)(F)F)n4c3)CC2)cc1 [Example 186, 3-(trifluoromethyl)-6-[4-[[4-(trifluoromethyl)phenyl]methyl]piperazin-1-yl]-[1,2,4]triazolo[4,3-a]pyridine] | 2.8 |
| N#Cc1ccc(CN2CCN(c3ccc4nnc(C(F)(F)F)n4c3)CC2)cc1 [Example 187, 4-[[4-[3-(trifluoromethyl)-[1,2,4]triazolo[4,3-a]pyridin-6-yl]piperazin-1-yl]methyl]benzonitrile] | 4.7 |
| N#Cc1cccc(CN2CCN(c3ccc4nnc(C(F)(F)F)n4c3)CC2)c1 [Example 188, 3-[[4-[3-(trifluoromethyl)-[1,2,4]triazolo[4,3-a]pyridin-6-yl]piperazin-1-yl]methyl]benzonitrile] | 2.2 |
| Fc1cccc(CN2CCN(c3ccc4nnc(C(F)(F)F)n4c3)CC2)c1 [Example 189, 6-[4-[(3-fluorophenyl)methyl]piperazin-1-yl]-3-(trifluoromethyl)-[1,2,4]triazolo[4,3-a]pyridine] | 1.1 |
| FC(F)(F)c1nnc2ccc(N3CCN(Cc4ccc(Cl)cc4)CC3)cn12 [Example 190, 6-[4-[(4-chlorophenyl)methyl]piperazin-1-yl]-3-(trifluoromethyl)-[1,2,4]triazolo[4,3-a]pyridine] | 0.79 |
| Fc1ccc(CN2CCN(c3ccc4nnc(C(F)(F)F)n4c3)CC2)cc1 [Example 191, 6-[4-[(4-fluorophenyl)methyl]piperazin-1-yl]-3-(trifluoromethyl)-[1,2,4]triazolo[4,3-a]pyridine] | 2.1 |
| COc1ccc(CN2CCN(c3ccc4nnc(C(F)(F)F)n4c3)CC2)cc1 [Example 192, 6-[4-[(4-methoxyphenyl)methyl]piperazin-1-yl]-3-(trifluoromethyl)-[1,2,4]triazolo[4,3-a]pyridine] | 8.7 |
| FC(F)(F)c1nnc2ccc(N3CC4CN(Cc5ccncc5)CC4C3)nn12 (stereo not shown) [Example 193, 6-[2-(pyridin-4-ylmethyl)-1,3,3a,4,6,6a-hexahydropyrrolo[3,4-c]pyrrol-5-yl]-3-(trifluoromethyl)-[1,2,4]triazolo[4,3-b]pyridazine] | 2 |
| COc1cccc(CN2CC3CN(c4ccc5nnc(C(F)(F)F)n5n4)CC3C2)c1 (stereo not shown) [Example 194, 6-[2-[(3-methoxyphenyl)methyl]-1,3,3a,4,6,6a-hexahydropyrrolo[3,4-c]pyrrol-5-yl]-3-(trifluoromethyl)-[1,2,4]triazolo[4,3-b]pyridazine] | 2.4 |
| FC(F)(F)c1cccc(CN2CC3CN(c4ccc5nnc(C(F)(F)F)n5n4)CC3C2)c1 (stereo not shown) [Example 196, 3-(trifluoromethyl)-6-[2-[[3-(trifluoromethyl)phenyl]methyl]-1,3,3a,4,6,6a-hexahydropyrrolo[3,4-c]pyrrol-5-yl]-[1,2,4]triazolo[4,3-b]pyridazine] | 1.5 |
| N#Cc1cccc(CN2CC3CN(c4ccc5nnc(C(F)(F)F)n5n4)CC3C2)c1 (stereo not shown) [Example 197, 3-[[5-[3-(trifluoromethyl)-[1,2,4]triazolo[4,3-b]pyridazin-6-yl]-1,3,3a,4,6,6a-hexahydropyrrolo[3,4-c]pyrrol-2-yl]methyl]benzonitrile] | 0.82 |
| FC(F)(F)c1ccc(CN2CC3CN(c4ccc5nnc(C(F)(F)F)n5n4)CC3C2)cc1 (stereo not shown) [Example 199, 3-(trifluoromethyl)-6-[2-[[4-(trifluoromethyl)phenyl]methyl]-1,3,3a,4,6,6a-hexahydropyrrolo[3,4-c]pyrrol-5-yl]-[1,2,4]triazolo[4,3-b]pyridazine] | 1.9 |
| FC(F)(F)c1ccc(CN2CC3CN(c4ccc5nnc(C(F)(F)F)n5n4)CC3C2)cn1 (stereo not shown) [Example 201, 3-(trifluoromethyl)-6-[2-[[6-(trifluoromethyl)pyridin-3-yl]methyl]-1,3,3a,4,6,6a-hexahydropyrrolo[3,4-c]pyrrol-5-yl]-[1,2,4]triazolo[4,3-b]pyridazine] | 1.7 |
| Fc1ccc(CN2CC3CN(c4ccc5nnc(C(F)(F)F)n5n4)CC3C2)cc1 (stereo not shown) [Example 203, 6-[2-[(4-fluorophenyl)methyl]-1,3,3a,4,6,6a-hexahydropyrrolo[3,4-c]pyrrol-5-yl]-3-(trifluoromethyl)-[1,2,4]triazolo[4,3-b]pyridazine] | 1.7 |
| FC(F)(F)c1nnc2ccc(N3CC4CN(Cc5ccc(Cl)cc5)CC4C3)nn12 (stereo not shown) [Example 204, 6-[2-[(4-chlorophenyl)methyl]-1,3,3a,4,6,6a-hexahydropyrrolo[3,4-c]pyrrol-5-yl]-3-(trifluoromethyl)-[1,2,4]triazolo[4,3-b]pyridazine] | 1.5 |
| N#Cc1ccc(CN2CC3CN(c4ccc5nnc(C(F)(F)F)n5n4)CC3C2)cc1 (stereo not shown) [Example 205, 4-[[5-[3-(trifluoromethyl)-[1,2,4]triazolo[4,3-b]pyridazin-6-yl]-1,3,3a,4,6,6a-hexahydropyrrolo[3,4-c]pyrrol-2-yl]methyl]benzonitrile] | 0.53 |
| FC(F)(F)c1nnc2ccc(N3CC4CN(Cc5cccnc5)CC4C3)nn12 (stereo not shown) [Example 206, 6-[2-(pyridin-3-ylmethyl)-1,3,3a,4,6,6a-hexahydropyrrolo[3,4-c]pyrrol-5-yl]-3-(trifluoromethyl)-[1,2,4]triazolo[4,3-b]pyridazine] | 2 |
| COc1cccc(C(=O)N2CC3CN(c4ccc5nnc(C(F)(F)F)n5n4)CC3C2)c1 (stereo not shown) [Example 207, (3-methoxyphenyl)-[2-[3-(trifluoromethyl)-[1,2,4]triazolo[4,3-b]pyridazin-6-yl]-1,3,3a,4,6,6a-hexahydropyrrolo[3,4-c]pyrrol-5-yl]methanone] | 7.6 |
| FC(F)(F)c1nnc2ccc(N3CC4CN(Cc5ccccc5)CC4C3)nn12 (stereo not shown) [Example 210, 6-(5-benzyl-1,3,3a,4,6,6a-hexahydropyrrolo[3,4-c]pyrrol-2-yl)-3-(trifluoromethyl)-[1,2,4]triazolo[3,4-f]pyridazine] | 1.8 |
| CC(C)(C)OC(=O)N1CC2CN(c3ccc4nnc(C(F)(F)F)n4n3)CC2C1 (stereo not shown) [Example 211, tert-butyl 5-(3-(trifluoromethyl)-[1,2,4]triazolo[4,3-b]pyridazin-6-yl)hexahydropyrrolo[3,4-c]pyrrole-2(1H)-carboxylate] | 8.2 |

Source: patent publication US8003649B2 (AstraZeneca AB, priority 2007, dated 2011)
